According to US8163927B2, “Azabicyclo [3.1.0] hexane derivatives as modulators of dopamine D3 receptors” (Glaxo Group Limited, priority 2006, dated 2012):

Target: T1, D2 receptors (Homo sapiens, UniProt P14416)
T1 construct: expressed in transfected cells
Assay: GTPS scintillation proximity assay (GTPS-SPA), CHO_D2 cell membranes
Format: biochemical
Details: up to the highest concentration tested in the assay (3 μM)
Experimental: Functional potency of compounds of this invention can be measured by the following GTPS scintillation proximity assay (GTPS-SPA). Cells used in the study are Chinese Hamster Ovary (CHO) Cells.
All steps are performed at 4° C. Cell membranes are prepared as follows. Cell pellets are resuspended in 10 volumes of 50 mM HEPES, 1 mM EDTA pH 7.4, using KOH.
Cells are homogenised within a glass waring blender for 2 bursts of 15 secs in 200 mls of buffer (50 mM HEPES, 1 mM leupeptin, 25 μg/ml bacitracin, 1 mM EDTA, 1 mM PMSF, 2 μM Pepstatin A). (the latter 2 reagents added as fresh ×100 and ×500 stocks respectively in ethanol). […]
The final top concentration of test drug is 3 μM in the assay and 11 points serial dilution curves 1:4 in 100% DMSO are carried out using a Biomek FX. […] The final assay cocktail (45.5 μl) is incubated at room temperature to equilibrate for 3-6 hours before reading on a ViewLux™ (613/55 filter) luminescence imager 5 min/plate.
The effect of the test drug over the basal generates fpKi values of test drug are calculated from the IC50 generated by “antagonist format” experiment, using Cheng & Prusoff equation: fKi=IC50/1+([A]/EC50) where: [A] is the concentration of the agonist Quinelorane in the assay and EC50 is the Quinelorane EC50 value obtained in the same experiment. fpKi is defined as −log fKi. […]

T1 sequence (P14416 whole entry): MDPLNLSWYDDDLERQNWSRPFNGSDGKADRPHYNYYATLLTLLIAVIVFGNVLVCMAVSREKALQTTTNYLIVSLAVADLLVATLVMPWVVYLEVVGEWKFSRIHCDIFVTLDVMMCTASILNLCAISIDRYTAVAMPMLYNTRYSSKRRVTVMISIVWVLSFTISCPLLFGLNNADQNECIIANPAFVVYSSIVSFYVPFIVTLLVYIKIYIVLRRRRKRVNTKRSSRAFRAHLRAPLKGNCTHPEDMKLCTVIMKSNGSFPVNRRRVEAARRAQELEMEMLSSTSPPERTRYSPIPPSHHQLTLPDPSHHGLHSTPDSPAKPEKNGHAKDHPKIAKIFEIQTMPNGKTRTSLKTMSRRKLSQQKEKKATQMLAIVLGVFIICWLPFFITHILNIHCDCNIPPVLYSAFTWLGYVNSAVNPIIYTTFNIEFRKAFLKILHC

Row | activity in the D2 GTPS-SPA assay | SMILES
1 | no activity | COc1cccn(CCCCN2C[C@@H]3C[C@]3(c3ccc(C(F)(F)F)cc3)C2)c1=O.Cl [Example E8, 3-(methyloxy)-1-(4-{(1S,5R)-1-[4-(trifluoromethyl)phenyl]-3-azabicyclo[3.1.0]hex-3-yl}butyl)-2(1H)-pyridinone hydrochloride]
2 | no activity | Cl.N#Cc1cccn(CCCCN2C[C@@H]3C[C@]3(c3ccc(C(F)(F)F)cc3)C2)c1=O [Example E9, 2-oxo-1-(4-{(1S,5R)-1-[4-(trifluoromethyl)phenyl]-3-azabicyclo[3.1.0]hex-3-yl}butyl)-1,2-dihydro-3-pyridinecarbonitrile hydrochloride]
